Assay results reported in patent publication US20100160454A1, “ANTIMICROBIAL AGENTS, COMPOSITIONS AND PRODUCTS CONTAINING THE SAME, AND METHODS OF USING THE COMPOSITIONS AND PRODUCTS” (Eastman Chemical Company, priority 2008, published 2010).

Experiments:
Assay in all cases: Microbiological challenge testing in BPW broth, graded subculture counts
Format in all cases: cell-based
[1] = system: Streptococcus mutans ATCC 35668
Summary of the method: (§1)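 Strains grown in TSB with 1% dextrose at 35 °C for ≥96 h. Inoculum added to BPW broth with 1% dextrose, with or without test material (w/v), to 10^5–10^6 CFU/mL at time zero. Counts by spread-plating serial 1:10 dilutions in pH 7.2 phosphate buffer on PCA, incubated at 35 °C for ≥48 h.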

[2] = system: Pseudomonas aeruginosa Wild type; settings: P. aeruginosa
Summary of the method: as §1

[3] = system: Bacillus subtilis Wild type
Summary of the method: as §1

[4] = system: Escherichia coli ATCC 25922; settings: E. Coli
Summary of the method: as §1

[5] = system: Aeromonas sp. Wild type
Summary of the method: as §1

[6] = system: Staphylococcus epidermidis ATCC 12228
Summary of the method: as §1

Question: For CCCCOCCO [EB, 2-butoxyethanol], which “S. mutans growth grade, 3 day” value ([1]; 2.5% weight/volume) is on record?
Answer: 4 (1000 to 10,000 colonies countable (thus 10,000 CFU/mL to 100,000 CFU/mL))

Question: What about the “S. mutans growth grade, 13 day” value ([1]; 2.5% weight/volume) of the same molecule?
Answer: 4 (1000 to 10,000 colonies countable (thus 10,000 CFU/mL to 100,000 CFU/mL))

Question: What about the “S. mutans growth grade, 30 day” value ([1]; 2.5% weight/volume) of the same molecule?
Answer: 4 (1000 to 10,000 colonies countable (thus 10,000 CFU/mL to 100,000 CFU/mL))

Question: What about the “S. mutans growth grade, 3 day” value ([1]; 5.0% weight/volume) of the same molecule?
Answer: 0

Question: And the “S. mutans growth grade, 13 day” value ([1]; 5.0% weight/volume)?
Answer: 0

Question: And the “S. mutans growth grade, 30 day” value ([1]; 5.0% weight/volume)?
Answer: 0

Question: And the Grade ([2]; 2.5% (wt/vol), 3 day)?
Answer: 4 (1000 to 10,000 colonies countable (thus 10,000 CFU/mL to 100,000 CFU/mL))

Question: What about the Grade ([2]; 2.5% (wt/vol), 13 day) of the same molecule?
Answer: 4 (1000 to 10,000 colonies countable (thus 10,000 CFU/mL to 100,000 CFU/mL))

Question: What about the Grade ([2]; 2.5% (wt/vol), 30 day) of the same molecule?
Answer: 4 (1000 to 10,000 colonies countable (thus 10,000 CFU/mL to 100,000 CFU/mL))

Question: And the Grade ([2]; 5.0% (wt/vol), 3 day)?
Answer: 0

Question: What about the Grade ([2]; 5.0% (wt/vol), 13 day) of the same molecule?
Answer: 0

Question: And the Grade ([2]; 5.0% (wt/vol), 30 day)?
Answer: 0

Question: And the “B. subtillis growth grade, 3 day” value ([3]; 2.5% weight/volume)?
Answer: 4 (1000 to 10,000 colonies countable (thus 10,000 CFU/mL to 100,000 CFU/mL))

Question: What about the “B. subtillis growth grade, 14 day” value ([3]; 2.5% weight/volume) of the same molecule?
Answer: 4 (1000 to 10,000 colonies countable (thus 10,000 CFU/mL to 100,000 CFU/mL))

Question: And the “B. subtillis growth grade, 30 day” value ([3]; 2.5% weight/volume)?
Answer: 4 (1000 to 10,000 colonies countable (thus 10,000 CFU/mL to 100,000 CFU/mL))

Question: What about the “B. subtillis growth grade, 3 day” value ([3]; 5.0% weight/volume) of the same molecule?
Answer: 1 (0 to 51 colonies counted (thus 10 to 510 CFU/mL based on 0.1-mL sample))

Question: What about the “B. subtillis growth grade, 14 day” value ([3]; 5.0% weight/volume) of the same molecule?
Answer: 0

Question: What about the “B. subtillis growth grade, 30 day” value ([3]; 5.0% weight/volume) of the same molecule?
Answer: 0

Question: What about the Grade ([4]; 2.5% (wt/vol), 3 day) of the same molecule?
Answer: 4 (1000 to 10,000 colonies countable (thus 10,000 CFU/mL to 100,000 CFU/mL))

Question: What about the Grade ([4]; 2.5% (wt/vol), 14 day) of the same molecule?
Answer: 4 (1000 to 10,000 colonies countable (thus 10,000 CFU/mL to 100,000 CFU/mL))

Question: And the Grade ([4]; 2.5% (wt/vol), 30 day)?
Answer: 4 (1000 to 10,000 colonies countable (thus 10,000 CFU/mL to 100,000 CFU/mL))

Question: What about the Grade ([4]; 5.0% (wt/vol), 3 day) of the same molecule?
Answer: 1 (0 to 51 colonies counted (thus 10 to 510 CFU/mL based on 0.1-mL sample))

Question: What about the Grade ([4]; 5.0% (wt/vol), 14 day) of the same molecule?
Answer: 0

Question: What about the Grade ([4]; 5.0% (wt/vol), 30 day) of the same molecule?
Answer: 0

Question: And the “Aeromonas sp growth grade, 3 day” value ([5]; 2.5% weight/volume)?
Answer: 4 (1000 to 10,000 colonies countable (thus 10,000 CFU/mL to 100,000 CFU/mL))

Question: And the “Aeromonas sp growth grade, 14 day” value ([5]; 2.5% weight/volume)?
Answer: 4 (1000 to 10,000 colonies countable (thus 10,000 CFU/mL to 100,000 CFU/mL))

Question: What about the “Aeromonas sp growth grade, 30 day” value ([5]; 2.5% weight/volume) of the same molecule?
Answer: 4 (1000 to 10,000 colonies countable (thus 10,000 CFU/mL to 100,000 CFU/mL))

Question: What about the “Aeromonas sp growth grade, 3 day” value ([5]; 5.0% weight/volume) of the same molecule?
Answer: 1 (0 to 51 colonies counted (thus 10 to 510 CFU/mL based on 0.1-mL sample))

Question: And the “Aeromonas sp growth grade, 14 day” value ([5]; 5.0% weight/volume)?
Answer: 0

Question: What about the “Aeromonas sp growth grade, 30 day” value ([5]; 5.0% weight/volume) of the same molecule?
Answer: 0

Question: What about the “S. epidermidis growth grade, 3 day” value ([6]; 2.5% weight/volume) of the same molecule?
Answer: 4 (1000 to 10,000 colonies countable (thus 10,000 CFU/mL to 100,000 CFU/mL))

Question: What about the “S. epidermidis growth grade, 13 day” value ([6]; 2.5% weight/volume) of the same molecule?
Answer: 4 (1000 to 10,000 colonies countable (thus 10,000 CFU/mL to 100,000 CFU/mL))

Question: And the “S. epidermidis growth grade, 30 day” value ([6]; 2.5% weight/volume)?
Answer: 4 (1000 to 10,000 colonies countable (thus 10,000 CFU/mL to 100,000 CFU/mL))

Question: What about the “S. epidermidis growth grade, 3 day” value ([6]; 5.0% weight/volume) of the same molecule?
Answer: 0

Question: And the “S. epidermidis growth grade, 13 day” value ([6]; 5.0% weight/volume)?
Answer: 0

Question: And the “S. epidermidis growth grade, 30 day” value ([6]; 5.0% weight/volume)?
Answer: 0
